Measured values reported in patent publication US20100029673A1, “THERAPEUTIC AGENTS COMPRISING AN ANTI-ANGIOGENIC AGENT IN COMBINATION WITH AN SRC-INHIBITOR AND THEIR THERAPEUTIC USE” (AstraZeneca AB, priority 2003, published 2010).

Assays:
dog coronary arteries = settings: cited from earlier work
conscious rats = settings: cited from earlier work
[1] = tested on: normotensive rats (Alderley Park strain, male animals); test: Measurement of blood pressure in conscious rats by radio-telemetry; type: in vivo, rat; settings: single dose p.o. of a combination of 1.5 mg/kg of VTK-1 and 25 mg/kg of Src-1 vs control citrate buffer vehicle; FIGS. 1-3
Experimental: Blood pressure was measured using commercially-available radio-telemetry equipment (Data Sciences International, Saint Paul, Minn., USA) which provides a means for the remote measurement of the blood pressure (BP), heart rate and activity of a conscious, unrestrained laboratory animal such as a rat. Measurements obtained using this system have the advantage that the test animal is free from stresses induced by surgery and/or restraint.
The equipment comprises a pressure transducer (Code No. TA11PA-C40; hereinafter the ‘pressure transducer implant’) that is implanted into the abdomen of a laboratory rat. The transducer transmits a radio signal indicating the pressure in the aorta of the animal and the signal is detected by a receiver (RA1010) placed under the plastic cage which houses the animal. The signal is recorded and evaluated automatically by pre-written computer software (DataQuest 2.1 that may be installed on a suitable computer such as an IBM-compatible personal computer containing an Intel™ 486 processor). […]
The animals were housed in a facility using a 12 hour cycle of light and dark. […] Blood pressure data were recorded from each animal every 10 minutes throughout each Study.
Typically, on day 1, each of a group of 3 rats was dosed p.o. at approximately 9.00 am with control vehicle and blood pressure data were recorded during the ensuing 24 hour period. […]

anaesthetized rats = settings: 15 μg/kg bFGF; cited from earlier work

## VEGF
Dog coronary arteries
  effect on dog coronary arteries in vitro: dilate dog coronary arteries
Conscious rats; VEGF 250 μg/kg, conscious rats
  return to normal blood pressure: ≤ 20 min
Conscious rats; conscious rat
  effect on blood pressure in the conscious rat: induce hypotension

## CC(=O)N1CCN(CCOc2cc(OC(C)C)c3c(Nc4c(Cl)ccc5c4OCO5)ncnc3c2)CC1 [Src-1, 7-[2-(4-acetylpiperazin-1-yl)ethoxy]-4-(6-chloro-2,3-methylenedioxyanilino)-5-isopropoxyquinazoline]
[1]
  contrasting blood pressure effects (diastolic blood pressure profile): substantially counter-balanced

## COc1cc2c(Oc3ccc4[nH]c(C)cc4c3F)ncnc2cc1OCCCN1CCCCC1 [VTK-1, 4-(4-fluoro-2-methylindol-5-yloxy)-6-methoxy-7-(3-piperidinopropoxy)quinazoline]
[1]
  contrasting blood pressure effects (diastolic blood pressure profile): substantially counter-balanced

## bFGF: basic fibroblast growth factor
Anaesthetized rats
  blood pressure returning to normal: ≤ 30 min
